From patent US20230147588A1, “USE OF1,9-DECANEDIOL IN INHIBITING AMMONIA VOLATILIZATION FROM SOIL” (INSTITUTION OF SOIL SCIENCE, CHINESE ACADEMY OF SCIENCES, priority 2021, published 2023)

Experiments:
[1] = system: ammonia volatilization from soil; assay: Soil column culture: effects of different inhibitors on ammonia volatilization from soil (Test Example 2); settings: 21 days; for inhibition of ammonia volatilization from soil compared with the urea treatment (U): 200 mg N per kg soil; for order of inhibition effects of ammonia volatilization, from high to low: suffix -100 / -500 = addition in soil in mg/kg, with urea
Text: A soil column culture method is used for the test (FIG. 1). The soil column is 18 centimeters (cm) in height and 5 cm in inner diameter, which is divided into a leak-proof layer, a soil-fertilizer mixed layer, a flooded layer, and an idle layer (also referred to as spare layer). A leak-proof pad and 1 cm thick quartz sand are placed in the leak-proof layer at a bottom of the soil column firstly to prevent soil leakage and simulate a real situation in the field, and then the experimental soil is added to the soil-fertilizer mixed layer, and after compaction, a bottom leaching switch is turned on and water is added to restore the soil activity. After one night of soil recovery activity, the bottom leaching switch is turned off, and the urea required for each treatment is mixed with 1,9-decanediol to prepare a mixed solution. The mixed solution is evenly applied to the soil-fertilizer mixture layer of the soil column, the water is added to maintain a flooded state, and the ammonia volatilization from soil is monitored for 21 consecutive days.
2.1 Test Soil: The Same as Test Example 1
2.2 test reagent: 1, 9-decanediol, the same as test example 1, dicyandiamide (DCD, C2H4N4), linolenic acid (LN, […]) and methyl 3-(4-hydroxyphenyl)propionate (MHPP, C10H12O3) are purchased from Sigma.
2.3 experimental treatments: urea treatment (U), DCD + urea treatment, LN + urea treatment, MHPP + urea treatment, and 1,9-decanediol + urea treatment are set in experiments, in which an addition of DCD in soil is 20 mg/kg, and additions of LN, MHPP and 1,9-decanediol in soil each includes 100 mg/kg and 500 mg/kg, numbered as: DCD, LN-100, LN-500, MHPP-100, MHPP-500, 1,9-D-100, and 1,9-D-500. Each treatment is repeated three times. The nitrogen application rate is 200 mg nitrogen per kilogram soil.
2.4 Experimental Steps: The Same as the Test Example 1

nitrification process = settings: at low concentration; cited from earlier work
[2] = system: ammonia volatilization from soil; assay: Soil column culture: effects of 1,9-decanediol on ammonia volatilization from soil (Test Example 1); settings: paddy soil column, 21 days
Procedure: 1.1 test soil: the test soil type is paddy soil, and the texture is sandy loam. It is collected from 0~20 centimeters (cm) topsoil of the experimental field in Yingtan City, Jiangxi Province (28°15′N, 116°55′E), sieved with a 2 millimeters (mm) sieve, and mixed evenly. See Table 1 for basic physical and chemical properties.
1.3 experimental treatment: urea treatment (U) and 1,9-decanediol + urea treatment are set in experiments. Among them, 1, 9-decanediol is added in soil at four levels of 100 mg/kg, 200 mg/kg, 500 mg/kg, and 1000 mg/kg, numbered as: 1, 9-D-100, 1, 9-D-200, 1, 9-D-500, and 1, 9-D-1000 respectively. Each treatment is repeated three times. The nitrogen application rate is 200 mg nitrogen per kilogram soil.
A soil column culture method is used for the test (FIG. 1). The soil column is 18 centimeters (cm) in height and 5 cm in inner diameter, which is divided into a leak-proof layer, a soil-fertilizer mixed layer, a flooded layer, and an idle layer (also referred to as spare layer). […] The mixed solution is evenly applied to the soil-fertilizer mixture layer of the soil column, the water is added to maintain a flooded state, and the ammonia volatilization from soil is monitored for 21 consecutive days.

[3] = paddy soil column, additions 100 and 500 mg/kg with urea

| SMILES | inhibition of ammonia volatilization from soil compared with the urea treatment (U) [1, 3] | order of inhibition effects of ammonia volatilization, from high to low [1] | ammonia volatilization from soil compared with LN and MHPP treatments [1, 3] | inhibition of the nitrification process (nitrification process) | dose dependence of the inhibition effect of ammonia volatilization ([2]; 100 to 1000 mg/kg in soil with urea) | total amount of ammonia volatilization from soil compared with the treatment (U) without 1,9-decanediol ([2]; flooded, 100, 200, 500, 1000 mg/kg in soil with urea, 200 mg N per kg soil) |
| --- | --- | --- | --- | --- | --- | --- |
| COC(=O)CCc1ccc(O)cc1 [MHPP, methyl 3-(4-hydroxyphenyl)propionate, reference compound] | can inhibit ammonia volatilization from soil | 1,9-D-500 > LN-500 > 1,9-D-100 >MHPP-500 > LN-100 > MHPP-100 |  |  |  |  |
| CC(O)CCCCCCCCO (centres unmarked) [1,9-decanediol] | can inhibit ammonia volatilization from soil | 1,9-D-500 > LN-500 > 1,9-D-100 >MHPP-500 > LN-100 > MHPP-100 | significantly lower than that from soil treated with LN and MHPP | can inhibit the nitrification process at low concentration | more obvious with the increase of the dosage | significantly reduce the total amount of ammonia volatilization from soil |
